From patent US10035800B2 (AbbVie Inc., priority 2013, dated 2018)

Key:
BRD4 (BDI_K57-E168) = target: T1, BRD4 (BDI_K57-E168) (Homo sapiens, UniProt O60885); test: TR-FRET bromodomain binding assay, first bromodomain of BRD4; settings: 100 nM probe
T1 construct: BD1: amino acids K57-E168; made in house
How it was run: (§1)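 TR-FRET displacement of an Alexa647-labelled BET-inhibitor probe from His-tagged BRD4 BD1 or BD2 (8 nM), read via 1 nM Eu-anti-His antibody after 1 h at room temperature. Buffer was 20 mM sodium phosphate pH 6.0 with 2% DMSO. Probe was 100 nM for BDI and 30 nM for BDII. IC50 came from 4-parameter fits, and Ki from IC50, probe Kd and probe concentration.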

[1] = tested on: breast cancer cell line MX-1; test: MX-1 cell line proliferation assay; format: cell-based; settings: MX-1 cells, 3-day proliferation assay, Cell Titer Glo; read-out: Cellular proliferation: EC50
How it was run: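 MX-1 cells at 5000/well, in RPMI 1640 with 10% FBS, were exposed to compounds for 3 days. Final concentrations ranged 3 μM–0.1 nM or 1 μM–0.03 nM, in 3-fold steps. Cell Titer Glo luminescence was normalized to DMSO and fitted sigmoidally for EC50; overall MSR 2.1.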

BRD4 (BDII_E352-M457) = target: T2, BRD4 (BDII_E352-M457) (Homo sapiens, UniProt O60885); test: TR-FRET bromodomain binding assay, second bromodomain of BRD4; settings: 30 nM probe
T2 construct: protocol; made in house
How it was run: as §1

[2] = TR-FRET assay protocol G (compound 0.92 μM-15 pM)
[3] = TR-FRET assay protocol E (compound 9.19 μM-150 pM)

Molecule	Ki (BRD4 (BDI_K57-E168); [2]) [nM]	EC50 [1] [nM]	Ki (BRD4 (BDII_E352-M457); [2]) [nM]	Ki (BRD4 (BDI_K57-E168); [3]) [nM]	Ki (BRD4 (BDII_E352-M457); [3]) [nM]
Cn1cc2c3c(c[nH]c3c1=O)CN(C(=O)Oc1ccc3ccccc3c1)c1ccc(CS(C)(=O)=O)cc1-2 [Example 90, naphthalen-2-yl 10-methyl-7-((methylsulfonyl)methyl)-11-oxo-10,11-dihydro-1H-1,4,10-triazadibenzo[cd,f]azulene-4(3H)-carboxylate]	1.32	30.6	2.01	–	–
Cn1cc2c3c(c[nH]c3c1=O)CN(CCc1ccc3c(c1)OCO3)c1c(F)cc(F)cc1-2 [Example 56, 4-(2-(benzo[d][1,3]dioxol-5-yl)ethyl)-5,7-difluoro-10-methyl-3,4-dihydro-1H-1,4,10-triazadibenzo[cd,f]azulen-11(10H)-one]	14.4	197	35.3	–	–
Cn1cc2c3c(c[nH]c3c1=O)CN(C(=O)Nc1c(F)cccc1F)c1ccc(CS(C)(=O)=O)cc1-2 [Example 70, N-(2,6-difluorophenyl)-10-methyl-7-((methylsulfonyl)methyl)-11-oxo-10,11-dihydro-1H-1,4,10-triazadibenzo[cd,f]azulene-4(3H)-carboxamide]	7.41	131	1.88	–	–
Cn1cc2c3c(c[nH]c3c1=O)CN(CC1CCN(C(=O)OC(C)(C)C)C1)c1ccc(CS(C)(=O)=O)cc1-2 (racemic) [Example 25, tert-butyl 3-((10-methyl-7-((methylsulfonyl)methyl)-11-oxo-10,11-dihydro-1H-1,4,10-triazadibenzo[cd,f]azulen-4(3H)-yl)methyl)pyrrolidine-1-carboxylate]	–	8.7	–	1.74	0.847
Cn1cc2c3c(c[nH]c3c1=O)CN(C(C#N)c1ccccc1)c1ccc(CS(C)(=O)=O)cc1-2 (stereo not drawn) [Example 261]	9.32	> 1000	7.78	–	–
COC(=O)CCC1c2c[nH]c3c(=O)n(C)cc(c23)-c2cc(CS(C)(=O)=O)ccc2N1c1ccc(F)cc1F (stereo not drawn) [Example 82, methyl 3-(4-(2,4-difluorophenyl)-10-methyl-7-((methylsulfonyl)methyl)-11-oxo-3,4,10,11-tetrahydro-1H-1,4,10-triazadibenzo[cd,f]azulen-3-yl)propanoate]	13.3	979	1.12	–	–
Cn1cc2c3c(c[nH]c3c1=O)CN(C(=O)C1CC1)c1ccc(CS(C)(=O)=O)cc1-2 [Example 115, 4-(cyclopropanecarbonyl)-10-methyl-7-((methylsulfonyl)methyl)-3,4-dihydro-1H-1,4,10-triazadibenzo[cd,f]azulen-11(10H)-one]	8.7	7.83	2.71	–	–
Cn1cc2c3c(c[nH]c3c1=O)C(Cc1ccccc1)Nc1ccc(CS(C)(=O)=O)cc1-2 (stereo not drawn) [Example 16, 3-benzyl-10-methyl-7-((methylsulfonyl)methyl)-3,4-dihydro-1H-1,4,10-triazadibenzo[cd,f]azulen-11(10H)-one]	–	337	–	92.6	18.9
Cn1cc2c3c(c[nH]c3c1=O)C(CCC(=O)NC1CCS(=O)(=O)C1)N(c1ccc(F)cc1F)c1ccc(CS(C)(=O)=O)cc1-2 (stereo not drawn) [Example 124, 3-(4-(2,4-difluorophenyl)-10-methyl-7-((methylsulfonyl)methyl)-11-oxo-3,4,10,11-tetrahydro-1H-1,4,10-triazadibenzo[cd,f]azulen-3-yl)-N-(1,1-dioxidotetrahydrothiophen-3-yl)propanamide]	8.84	944	2.78	–	–
Cn1cc2c3c(c[nH]c3c1=O)C(/C=C/c1ccc(F)cc1)Nc1ccc(CS(C)(=O)=O)cc1-2 (racemic) [Example 20, (E)-3-(4-fluorostyryl)-10-methyl-7-((methylsulfonyl)methyl)-3,4-dihydro-1H-1,4,10-triazadibenzo[cd,f]azulen-11(10H)-one]	–	544	–	158	24.5
COc1ccc(NC(=O)N2Cc3c[nH]c4c(=O)n(C)cc(c34)-c3cc(CS(C)(=O)=O)ccc32)cc1 [Example 62, N-(4-methoxyphenyl)-10-methyl-7-((methylsulfonyl)methyl)-11-oxo-10,11-dihydro-1H-1,4,10-triazadibenzo[cd,f]azulene-4(3H)-carboxamide]	7.23	910	4.73	–	–
CN(NC(=O)CCC1c2c[nH]c3c(=O)n(C)cc(c23)-c2cc(CS(C)(=O)=O)ccc2N1c1ccc(F)cc1F)c1ccccc1 (stereo not drawn) [Example 122, 3-(4-(2,4-difluorophenyl)-10-methyl-7-((methylsulfonyl)methyl)-11-oxo-3,4,10,11-tetrahydro-1H-1,4,10-triazadibenzo[cd,f]azulen-3-yl)-N′-methyl-N′-phenylpropanehydrazide]	10.8	> 1000	0.922	–	–
4-(1H-indazol-5-yl)-10-methyl-7-((methylsulfonyl)methyl)-3,4-dihydro-1H-1,4,10-triazadibenzo[cd,f]azulen-11(10H)-one [Example 246]	4.32	11.7	3.6	–	–
COC(=O)CCCCC1c2c[nH]c3c(=O)n(C)cc(c23)-c2cc(CS(C)(=O)=O)ccc2N1c1ccc(F)cc1F (stereo not drawn) [Example 134, methyl 5-(4-(2,4-difluorophenyl)-10-methyl-7-((methylsulfonyl)methyl)-11-oxo-3,4,10,11-tetrahydro-1H-1,4,10-triazadibenzo[cd,f]azulen-3-yl)pentanoate]	14.4	182	1.11	–	–
Cc1cnc2c(c1)-c1cn(C)c(=O)c3[nH]cc(c13)C(c1ccccc1)N2c1ccc(F)cc1 (stereo not drawn) [Example 33, 4-(4-fluorophenyl)-7,10-dimethyl-3-phenyl-3,4-dihydro-1H-1,4,5,10-tetraazadibenzo[cd,f]azulen-11(10H)-one]	38.3	495	22.8	–	–

Now from value to molecule:

Ki (BRD4 (BDI_K57-E168); [2]) [nM]	EC50 [1] [nM]	Ki (BRD4 (BDII_E352-M457); [2]) [nM]	Ki (BRD4 (BDI_K57-E168); [3]) [nM]	Ki (BRD4 (BDII_E352-M457); [3]) [nM]	Molecule
17.5	627	2.33	–	–	Cn1cc2c3c(c[nH]c3c1=O)C(CNC(=O)CN)N(c1ccc(F)cc1F)c1ccc(CS(C)(=O)=O)cc1-2 (stereo not drawn) [Example 139, 2-amino-N-((4-(2,4-difluorophenyl)-10-methyl-7-((methylsulfonyl)methyl)-11-oxo-3,4,10,11-tetrahydro-1H-1,4,10-triazadibenzo[cd,f]azulen-3-yl)methyl)acetamide]
20.8	319	10.9	–	–	4-(2,4-difluorophenyl)-10-methyl-7-((methylsulfonyl)methyl)-11-oxo-3,4,10,11-tetrahydro-1H-1,4,10-triazadibenzo[cd,f]azulene-3-carboxamide [Example 141]
2.02	3.72	1.27	–	–	Cn1cc2c3c(c[nH]c3c1=O)CN(c1ccc(F)cc1)c1ccc(CC#N)cc1-2 [Example 177, 2-(4-(4-fluorophenyl)-10-methyl-11-oxo-3,4,10,11-tetrahydro-1H-1,4,10-triazadibenzo[cd,f]azulen-7-yl)acetonitrile]
46.1	> 1000	1.22	–	–	Cn1cc2c3c(c[nH]c3c1=O)C(CN1C(=O)c3ccccc3C1=O)N(c1ccc(F)cc1F)c1ccc(CS(C)(=O)=O)cc1-2 [Example 204, (S)-2-((4-(2,4-difluorophenyl)-10-methyl-7-((methylsulfonyl)methyl)-11-oxo-3,4,10,11-tetrahydro-1H-1,4,10-triazadibenzo[cd,f]azulen-3-yl)methyl)isoindoline-1,3-dione]
12.4	69.9	4.67	–	–	Cn1cc2c3c(c[nH]c3c1=O)CN(C(=O)CC(C)(C)C)c1c(F)cc(F)cc1-2 [Example 169, 4-(3,3-dimethylbutanoyl)-5,7-difluoro-10-methyl-3,4-dihydro-1H-1,4,10-triazadibenzo[cd,f]azulen-11(10H)-one]
0.875	1.71	0.95	–	–	N-(4-(4-fluorophenyl)-10-methyl-11-oxo-3,4,10,11-tetrahydro-1H-1,4,5,10-tetraazadibenzo[cd,f]azulen-7-yl)ethanesulfonamide [Example 22]
1.64	5.84	1.4	–	–	COC(=O)NC1CCC(N2Cc3c[nH]c4c(=O)n(C)cc(c34)-c3cc(CS(C)(=O)=O)ccc32)CC1 (stereo not drawn) [Example 224, methyl (4-(10-methyl-7-((methylsulfonyl)methyl)-11-oxo-10,11-dihydro-1H-1,4,10-triazadibenzo[cd,f]azulen-4(3H)-yl)cyclohexyl)carbamate]
46.8	214	42.1	–	–	Cn1cc2c3c(c[nH]c3c1=O)C(C(=O)NCCc1ccccc1)N(c1ccc(F)cc1F)c1ccc(CS(C)(=O)=O)cc1-2 (stereo not drawn) [Example 156, 4-(2,4-difluorophenyl)-10-methyl-7-((methylsulfonyl)methyl)-11-oxo-N-phenethyl-3,4,10,11-tetrahydro-1H-1,4,10-triazadibenzo[cd,f]azulene-3-carboxamide]
0.92	4.43	2.39	–	–	Cn1cc2c3c(c[nH]c3c1=O)CN(c1ncc(F)cn1)c1ccc(CS(C)(=O)=O)cc1-2 [Example 258, 4-(5-fluoropyrimidin-2-yl)-10-methyl-7-((methylsulfonyl)methyl)-3,4-dihydro-1H-1,4,10-triazadibenzo[cd,f]azulen-11(10H)-one]
